This note sets out measurements from PubChem BioAssay AID2060331 (Molecular Pharmacology Branch, DTP, NCI, 2025).

In this assay the test system is Hs578T multi-cell spheroids, viability. Description: Anticancer human tumor Hs578T cell line growth inhibition [IpAb].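 As to all read-outs here: drug exposure lasted 7 days before readout.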 As to conditions: for viability, T/C: stronger effect = lower value. A digest of the protocol: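 Multi-cell spheroids of 60% tumour cells, 25% HUVEC and 15% MSC in ultra-low-attachment U-bottom wells, treated with agents combined with ipatasertib or abemaciclib. Half-log ranges top out near clinical Cmax, or 10 microM when Cmax is unknown.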

SMILES strings stand for the structures. pIC50: −log10 of the molar value. “And” between values parts separate entries of the source, which are not always exact repeats. Identical values can stand only once.

As usually defined, the pIC50 is the IC50 on a negative log10 scale, so that one unit is a factor of ten. In general, viability, T/C refers to the result in the treated group divided by that in the control group, in per cent. On to `CC1(C)CCC(CN2CCN(c3ccc(C(=O)NS(=O)(=O)c4ccc(NCC5CCOCC5)c([N+](=O)[O-])c4)c(Oc4cnc5[nH]ccc5c4)c3)CC2)=C(c2ccc(Cl)cc2)C1` + CC(C)NCC(C(=O)N1CCN(c2ncnc3c2C(C)CC3O)CC1)c1ccc(Cl)cc1, for which the pIC50 is 5.25 (curve of first compound, second compound 0.1 µM); 5.29 (curve of first compound, second compound 0.316 µM); 5.42 (curve of first compound, second compound 1 µM); 5.81 (curve of first compound, second compound 3.16 µM); more than 7.50 (curve of first compound, second compound 10 µM). Moreover, the viability, T/C by setting is: (second compound 0.1 µM, first compound 0.0316 µM) 97.1%; (second compound 0.1 µM, first compound 0.1 µM) 96.7%; (second compound 0.1 µM, first compound 0.316 µM) 101%; (second compound 0.1 µM, first compound 1 µM) 95.3%; (second compound 0.1 µM, first compound 3.16 µM) 83%; (second compound 0.1 µM, first compound 10 µM) 15.7%. Moreover, the viability, T/C (second compound 0.316 µM, first compound 0.0316 µM) is 79.9%; the viability, T/C (second compound 0.316 µM, first compound 0.1 µM) is 90.2%; the viability, T/C (second compound 0.316 µM, first compound 0.316 µM) is 89.2%; the viability, T/C (second compound 0.316 µM, first compound 1 µM) was 81.9%; the viability, T/C (second compound 0.316 µM, first compound 3.16 µM) was 77.1%; the viability, T/C (second compound 0.316 µM, first compound 10 µM) is 13.5%. Moreover, the viability, T/C (second compound 1 µM, first compound 0.0316 µM) was 66.9%; the viability, T/C (second compound 1 µM, first compound 0.1 µM) was 66.5%; the viability, T/C (second compound 1 µM, first compound 0.316 µM) was 66.4%; the viability, T/C (second compound 1 µM, first compound 1 µM) was 63%; the viability, T/C (second compound 1 µM, first compound 3.16 µM) was 58.2%; the viability, T/C (second compound 1 µM, first compound 10 µM) was 11.1%. Further, the viability, T/C is 53.3% (second compound 3.16 µM, first compound 0.0316 µM); 54.3% (second compound 3.16 µM, first compound 0.1 µM); 51.3% (second compound 3.16 µM, first compound 0.316 µM); 53.4% (second compound 3.16 µM, first compound 1 µM); 45.9% (second compound 3.16 µM, first compound 3.16 µM); 10.2% (second compound 3.16 µM, first compound 10 µM). In addition, the viability, T/C (second compound 10 µM, first compound 0.0316 µM) was 46.7%; the viability, T/C (second compound 10 µM, first compound 0.1 µM) was 46.9%; the viability, T/C (second compound 10 µM, first compound 0.316 µM) was 46.8%; the viability, T/C (second compound 10 µM, first compound 1 µM) is 42.3%; the viability, T/C (second compound 10 µM, first compound 3.16 µM) was 40.9%; the viability, T/C (second compound 10 µM, first compound 10 µM) was 5.27%.

For `CC(=O)c1c(C)c2cnc(Nc3ccc(N4CCNCC4)cn3)nc2n(C2CCCC2)c1=O`, the viability, T/C by setting is: (compound 0.000949 µM) 105% and 108%; (compound 0.003 µM) 90.8% and 99.7%; (compound 0.00949 µM) 92.8% and 87.4%; (compound 0.03 µM) 82.7% and 87.7%; (compound 0.0949 µM) 73.4% and 73.1%; (compound 0.3 µM) 63.6% and 72.5%. The pIC50 (curve of compound) was less than 6.52.

Regarding `C=CCn1c(=O)c2cnc(Nc3ccc(N4CCN(C)CC4)cc3)nc2n1-c1cccc(C(C)(C)O)n1`, the viability, T/C runs as follows: (compound 0.0316 µM) 98.6% and 100%; (compound 0.1 µM) 77.7% and 83.3%; (compound 0.316 µM) 46.2% and 47.5%; (compound 1 µM) 26% and 25.8%; (compound 3.16 µM) 15.1% and 19.1%; (compound 10 µM) 17.7% and 17.6%. Also, the pIC50 (curve of compound) is 6.56 and 6.53.
